Where a name gives a salt, the structure may show the parent alone. Read-outs that look alike come from different tables or passages of the source.
Biological target: T1, human neuropeptide Y5 receptor (Homo sapiens, UniProt Q15761)
T1 construct: expressed in transfected cells; cell membranes
T1 sequence (Q15761 1-445): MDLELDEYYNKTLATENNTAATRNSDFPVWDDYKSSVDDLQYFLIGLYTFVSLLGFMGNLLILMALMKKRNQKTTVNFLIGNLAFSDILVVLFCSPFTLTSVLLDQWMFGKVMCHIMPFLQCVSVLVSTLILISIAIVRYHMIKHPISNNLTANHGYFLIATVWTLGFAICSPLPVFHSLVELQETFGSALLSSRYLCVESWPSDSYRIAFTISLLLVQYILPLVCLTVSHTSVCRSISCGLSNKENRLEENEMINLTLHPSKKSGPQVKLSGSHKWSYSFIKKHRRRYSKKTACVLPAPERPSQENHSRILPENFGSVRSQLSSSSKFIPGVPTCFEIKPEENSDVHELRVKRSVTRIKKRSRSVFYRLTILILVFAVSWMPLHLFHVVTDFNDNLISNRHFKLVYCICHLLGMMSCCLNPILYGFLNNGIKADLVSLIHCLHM
Assay: NPY5 HTS Centrifugation Assay: competition of 125I-PYY binding to membranes of NPY5-transfected HEK293 cells
Settings: for inhibition at 3 µM: read-out: % Inhibition of 125I-PYY Binding @ 3 uM; for inhibition at 30 µM: read-out: % Inhibition of 125I-PYY Binding @ 30 uM
Experimental: The compounds described in this invention were evaluated for binding to the human neuropeptide Y5 receptor.
Stably transfected cells served as the source for the membranes for the NPY5 receptor binding assay.
NPY5-transfected HEK293 cells were grown to confluence in 150 cm^2 culture dishes. […] Cells were then incubated in phosphate-buffered saline without Calcium and without Magnesium, supplemented with 2 mM EDTA. Cells were incubated for 10 minutes at room temperature and the cells were collected by repetitive pipeting. Cells were formed into pellets and then frozen at -80° C. until needed. Frozen pellets were homogenized with a polytron at full speed for 12 seconds in a homogenization buffer (20 mM Tris HCl, 5 mM EDTA, pH 7.4). Homogenates were centrifuged for 5 minutes at 4° C. at 200 g. Supernatants were transferred to corex tubes and centrifuged for 25 minutes at 28,000 g. Pellets were re-suspended in Binding (20 mM HEPES, 10 mM NaCl, 0.22 mM KH2 PO4, 1.3 mM CaCl2, 0.8 mM MgSO4, pH 7.4). Membranes were kept on ice until use.
Compounds to be tested were prepared as 10x stocks in binding buffer and added first to assay tubes (RIA vials, Sarstedt). […] To each tube is added 100 μL of membranes and the mixture is agitated by pipeting 2 times. Samples are incubated for 1 hr at room temperature. Aluminum cast plates (Sarstedt) containing the vials are then centrifuged 10 minutes at 3200 rpm in a Sorvall RT6000. Supernatant is then aspirated. To each vial 400 μL PBS is added and this is then aspirated again. Vials are then put in carrier polypropylene 12×75 tube and counted in gamma counter (Packard). Non-specific binding is determined in the presence of 300 nM NPY.

[1] = 3 uM, 80 pM 125I-PYY, human NPY Y5 receptor, 1 hr room temperature
[2] = 30 uM, 80 pM 125I-PYY, human NPY Y5 receptor, 1 hr room temperature

Row | Compound | inhibition at 3 µM [1] | inhibition at 30 µM [2] | inhibition at 3 µM | inhibition at 30 µM
1 | COc1ccccc1CN[C@H]1CCc2ccccc2[C@H]1Cc1ccccc1 (racemic) [Compound 11, rac-cis-1-(Phenylmethyl)-N-(2-methoxyphenylmethyl)-1,2,3,4-tetrahydro-2-naphthalenamine] | 21% | 96% |  | 
2 | COc1ccccc1C(=O)N[C@@H]1CCc2ccccc2[C@@H]1Cc1ccccc1 (relative stereo) [Compound 17, rac-cis-1-(Phenylmethyl)-N-(2-methoxyphenyl-2-oxomethyl)-1,2,3,4-tetrahydro-2-naphthalenamine monohydrobromide] | 65% | 98% |  | 
3 | COc1ccc(CCN[C@@H]2CCc3cc(OC)ccc3[C@@H]2Cc2ccccc2)cc1 (relative stereo) [Compound 30] | 62% | 99% |  | 
4 | COc1ccccc1CC(=O)N[C@@H]1CCc2ccccc2[C@@H]1Cc1ccccc1 (relative stereo) [Compound 23] | 12% | 47% |  | 
5 | Fc1ccc(C[C@@H]2c3ccccc3CC[C@@H]2NCCCc2ccccc2)cc1 (racemic) [Compound 24, rac-cis-1-(4-Fluorophenylmethyl)-N-(3-phenylpropyl)-1,2,3,4-tetrahydro-2-naphthalenamine monohydrobromide] | 19% | 102% |  | 
6 | COc1ccc(C[C@H]2c3ccc(OC)cc3CC[C@H]2NCCc2ccc(OC)c(OC)c2)cc1 (relative stereo) [Compound 34] | 89% | 103% |  | 
7 | COc1ccc2c(c1)[C@@H](Cc1ccccc1)[C@@H](NCc1ccccc1OC)CC2 (racemic) [Compound 15, rac-cis-1-(Phenylmethyl)-7-methoxy-N-(2-methoxyphenylmethyl)-1,2,3,4-tetrahydro-2-naphthalenamine monohydrobromide] | 31% |  |  | 
8 | COc1ccc2c(c1)CC[C@@H](NCCc1ccc(OC)c(OC)c1)[C@H]2Cc1cccc2ccccc12 (relative stereo) [Compound 33] | 16% | 73% |  | 
9 | c1ccc(C[C@H]2c3ccccc3CC[C@H]2NCCc2c[nH]c3ccccc23)cc1 (relative stereo) [Compound 8] | 73% | 105% |  | 
10 | COc1ccccc1CN[C@@H]1CCc2ccccc2[C@H]1Cc1ccc(F)cc1 (racemic) [Compound 13, rac-trans-1-(4-Fluorophenylmethyl)-N-(2-methoxyphenylmethyl)-1,2,3,4-tetrahydro-2-naphthalenamine monooxalate] |  |  | 16% | 89%
11 | COc1ccc(CCN[C@H]2CCc3ccccc3[C@H]2Cc2cccnc2)cc1OC (relative stereo) [Compound 28, rac-cis-1-(3-pyridylmethyl)-N-(2-(3,4-dimethoxyphenyl)ethyl-1,2,3,4-tetrahydro-2-naphthalenaminemonohydrobromide] | 11% | 66% |  | 
12 | Fc1ccc(CCN[C@@H]2CCc3ccccc3[C@@H]2Cc2ccccc2)cc1 (relative stereo) [Compound 14, monohydrobromide] | 13% | 98% |  | 
13 | COc1ccc2c(c1)CC[C@@H](NCCc1ccccc1)[C@H]2Cc1ccccc1 (relative stereo) [Compound 29] | 33% | 95% |  | 
14 | c1ccc2c(c1)CC[C@@H](NCCc1c[nH]c3ccccc13)[C@@H]2Cc1ccc2ccccc2c1 (racemic) [Compound 21, rac-trans-1-(2-Naphthylmethyl)-N-(2-(3-indolyl)ethyl)-1,2,3,4-tetrahydro-2-naphthalenamine monooxalate] |  |  | 33% | 103%
15 | COCCOc1ccc(CCN[C@H]2CCc3cc(OC)ccc3[C@H]2Cc2ccccc2)cc1 (relative stereo) [Compound 37] | 84% |  |  | 
16 | COc1ccc2c(c1)CC[C@@H](NCCc1ccc(Cl)c(Cl)c1)[C@H]2Cc1ccccc1 (relative stereo) [Compound 31] | 31% | 93% |  | 
17 | Fc1ccc(CN[C@H]2CCc3ccccc3[C@H]2Cc2ccccc2)cc1 (racemic) [Compound 9, rac-cis-1-(Phenylmethyl)-N-(4-fluorophenylmethyl)-1,2,3,4-tetrahydro-2-naphthalenamine monohydrobromide] | 20% | 97% |  | 
18 | COc1cccc(C[C@H]2c3ccc(OC)cc3CC[C@H]2NCCc2ccc(OC)c(OC)c2)c1 (relative stereo) [Compound 32] | 44% | 97% |  | 
19 | COc1ccc(CCN[C@@H]2CCc3ccccc3[C@@H]2Cc2ccccc2)cc1OC (relative stereo) [Compound 35] | 47% | 99% |  | 
20 | COc1ccc2c(c1)CC[C@H](NCCc1ccc(OC)c(OC)c1)[C@@H]2Cc1ccccc1 (racemic) [Compound 6, rac-cis-1-(Phenylmethyl)-6-methoxy-N-(2-(3,4-dimethoxyphenyl)ethyl)-1,2,3,4-tetrahydro-2-naphthalenamine] | 86% | 101% |  | 
21 | COc1ccc2c(c1)[C@H](Cc1ccccc1)[C@H](NCCc1c[nH]c3ccccc13)CC2 (relative stereo) [Compound 18, rac-cis-1-(Phenylmethyl)-7-methoxy-N-(2-(3-indolyl)ethyl)-1,2,3,4-tetrahydro-2-naphthalenamine 0.8 fumarate 0.8 methanol 0.2 hydrate] | 61% | 104% |  | 
22 | COc1ccccc1CN[C@H]1CCc2ccccc2[C@H]1Cc1ccc2ccccc2c1 (racemic) [Compound 22, rac-cis-1-(2-Naphthylmethyl)-N-(2-methoxyphenylmethyl)-1,2,3,4-tetrahydro-2-naphthalenamine monohydrobromide] | 15% | 96% |  | 
23 | COc1ccc2c(c1)CC[C@@H](NCCc1ccc(Oc3ccccc3)cc1)[C@H]2Cc1ccccc1 (relative stereo) [Compound 36] | 35% | 87% |  | 
24 | COc1ccc2c(c1)[C@@H](Cc1ccccc1)[C@H](NCCc1c[nH]c3ccccc13)CC2 (racemic) [Compound 19, rac-trans-1-(Phenylmethyl)-7-methoxy-N-(2(3-indolyl)ethyl)-1,2,3,4-tetrahydro-2-naphthalenamine monooxalate] |  |  | 49% | 
25 | Fc1ccc(C[C@@H]2c3ccccc3CC[C@H]2NCCc2c[nH]c3ccccc23)cc1 (racemic) [Compound 16, rac-trans-1-(4-Fluorophenylmethyl)-N-(2-(3-indolyl)ethyl)-1,2,3,4-tetrahydro-2-naphthalenamine monooxalate] |  |  | 48% | 101%
26 | COc1ccccc1CN[C@H]1CCc2ccccc2[C@H]1Cc1ccc(F)cc1 (racemic) [Compound 12, rac-cis-1-(4-Fluorophenylmethyl)-N-(2-methoxyphenylmethyl)-1,2,3,4-tetrahydro-2-naphthalenamine monohydrobromide] | 16% | 98% |  | 
27 | c1ccc2c(c1)CC[C@@H](NCCc1c[nH]c3ccccc13)[C@H]2Cc1ccc2ccccc2c1 (relative stereo) [Compound 20, rac-cis-1-(2-Naphthylmethyl)-N-(2-(3-indolyl)ethyl)-1,2,3,4-tetrahydro-2-naphthalenamine hemifumarate methanol] | 27% | 99% |  | 
